In ChEMBL document CHEMBL1201862, “PubChem BioAssay data set” (2004):
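Assay format: 96-well plates, 48-hour exposure. GI50 is the concentration that inhibits growth by half.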 Active and inactive are the calls of the source. Cut-off read from the data, not from the text of the source: active = GI50 up to about 1.1 µM and inactive = higher.

Key:
Assay in all cases: growth of human tumour cells (NCI), 48 h
HOP-62 = system: HOP-62
ACHN = system: ACHN
SF-539 = system: SF-539
SK-MEL-5 = system: SK-MEL-5
SNB-75 = system: SNB-75
SF-268 = system: SF-268
M14 = system: M14
MDA-MB-435 = system: MDA-MB-435
KM12 = system: KM12
Malme-3M = system: Malme-3M
MCF7 = system: MCF7
UACC-62 = system: UACC-62
SK-MEL-2 = system: SK-MEL-2
MDA-N = system: MDA-N
NCI/ADR-RES = system: NCI/ADR-RES
U-251 = system: U-251
HL-60 = system: HL-60
IGROV-1 = system: IGROV-1

Measured: GI50

C=C1[C@H]2O[C@H]2[C@@H](OC(C)=O)[C@@]2(C)[C@@H](OC(C)=O)C[C@@H](OC(=O)CCC)[C@@](C)(O)[C@@H]2[C@@H](OC(C)=O)[C@]2(O)[C@@H](C)C(=O)O[C@H]2[C@H]1Cl
inactive: HOP-62 > 100 µM | ACHN > 100 µM | SF-539 > 100 µM | SK-MEL-5 > 100 µM | SNB-75 > 100 µM | SF-268 > 100 µM | M14 > 100 µM | MDA-MB-435 > 100 µM | KM12 > 100 µM | Malme-3M > 100 µM | MCF7 > 100 µM | UACC-62 > 100 µM | SK-MEL-2 > 100 µM | MDA-N > 100 µM | NCI/ADR-RES > 100 µM | U-251 > 100 µM | HL-60 > 100 µM

O=S(=O)(c1ccccc1)c1cccc2c1NCCC2
inactive: HOP-62 > 100 µM | ACHN 58.9 µM | SF-539 45 µM | SK-MEL-5 23.2 µM | SNB-75 26.1 µM | SF-268 72.1 µM | M14 75.5 µM | MDA-MB-435 35.2 µM | KM12 44.2 µM | Malme-3M 29.1 µM | IGROV-1 52.5 µM | MCF7 40.8 µM | UACC-62 > 10 µM | SK-MEL-2 > 10 µM | MDA-N 47.2 µM | NCI/ADR-RES 38.5 µM | HL-60 21.8 µM

COC(=O)c1ccc(C(=O)NC(Cc2ccc(Oc3cc(CC(NC(=O)c4ccccc4C(=O)OC)C(=O)OC)ccc3OC)cc2)C(=O)OC)cc1 (configuration not stated)
inactive: HOP-62 36.3 µM | ACHN > 100 µM | SF-539 63.5 µM | SNB-75 42.6 µM | SF-268 > 100 µM | M14 > 100 µM | MDA-MB-435 > 100 µM | KM12 > 100 µM | Malme-3M > 100 µM | IGROV-1 > 100 µM | MCF7 67.5 µM | SK-MEL-2 77.8 µM | MDA-N > 100 µM | NCI/ADR-RES > 100 µM | HL-60 > 100 µM

CC1=NN(C(=O)CC(=O)Nc2ccccc2Cl)C(=O)C1/N=N/c1ccc(C(=O)O)cc1 (configuration not stated)
inactive: HOP-62 > 100 µM | ACHN > 100 µM | SF-539 > 100 µM | SK-MEL-5 > 100 µM | SF-268 > 100 µM | M14 > 100 µM | MDA-MB-435 > 100 µM | KM12 > 100 µM | Malme-3M > 100 µM | IGROV-1 > 100 µM | MCF7 > 100 µM | UACC-62 > 100 µM | SK-MEL-2 > 100 µM | MDA-N > 100 µM | NCI/ADR-RES > 100 µM | U-251 > 100 µM | HL-60 > 100 µM

Cc1ccc(-c2c(C#N)c(N)[nH]c(=S)c2C#N)cc1
inactive: HOP-62 55 µM | ACHN 79.3 µM | SF-539 > 100 µM | SK-MEL-5 23.4 µM | SF-268 31.9 µM | M14 43.6 µM | MDA-MB-435 23.3 µM | KM12 40.8 µM | Malme-3M 26.4 µM | IGROV-1 43.3 µM | MCF7 32 µM | UACC-62 35.4 µM | SK-MEL-2 25.2 µM | MDA-N 18.5 µM | NCI/ADR-RES 31.7 µM | U-251 49.1 µM | HL-60 17.3 µM

O=C(NCc1ccccc1)c1c(O)nc2ccccc2c1O
inactive: HOP-62 > 100 µM | ACHN > 100 µM | SF-539 > 100 µM | SK-MEL-5 > 100 µM | SNB-75 > 100 µM | SF-268 > 100 µM | MDA-MB-435 > 100 µM | KM12 > 100 µM | Malme-3M > 100 µM | IGROV-1 > 100 µM | MCF7 > 100 µM | MDA-N > 100 µM | NCI/ADR-RES > 100 µM | U-251 > 100 µM | HL-60 > 100 µM

COC(=O)C(=O)C(C(=O)C(=O)Nc1cccc([N+](=O)[O-])c1)c1nc2ccc(Cl)cc2nc1O (configuration not stated)
inactive: HOP-62 > 100 µM | ACHN > 100 µM | SF-539 45.5 µM | SK-MEL-5 > 100 µM | SNB-75 77.1 µM | SF-268 > 100 µM | M14 > 100 µM | MDA-MB-435 > 100 µM | KM12 > 100 µM | IGROV-1 > 100 µM | MCF7 > 100 µM | UACC-62 > 100 µM | SK-MEL-2 > 100 µM | MDA-N > 100 µM | NCI/ADR-RES > 100 µM | U-251 > 100 µM | HL-60 > 100 µM

Cn1c(=O)c(C(=O)Nc2nc(C34CC5CC(CC(C5)C3)C4)cs2)c(O)c2ccccc21
inactive: HOP-62 10.7 µM | ACHN 24.3 µM | SF-539 > 100 µM | SK-MEL-5 > 100 µM | SNB-75 56.1 µM | SF-268 > 100 µM | MDA-MB-435 > 100 µM | KM12 > 100 µM | Malme-3M > 100 µM | IGROV-1 77.3 µM | MCF7 > 100 µM | MDA-N > 100 µM | NCI/ADR-RES 13.2 µM | U-251 57.5 µM | HL-60 86.9 µM

CSc1c(C#N)c(S)n(-c2ccc(Cl)cc2)c(=O)c1C#N
inactive: SF-539 > 100 µM | SK-MEL-5 83.9 µM | SNB-75 > 100 µM | SF-268 > 100 µM | M14 > 100 µM | MDA-MB-435 > 100 µM | KM12 40.2 µM | Malme-3M > 100 µM | IGROV-1 80.7 µM | MCF7 > 100 µM | UACC-62 51.2 µM | SK-MEL-2 > 100 µM | MDA-N > 100 µM | NCI/ADR-RES 39.8 µM | U-251 > 100 µM | HL-60 52.5 µM

O=C(O)CCc1ccc2c(c1)C(=O)CC2
inactive: HOP-62 > 100 µM | ACHN > 100 µM | SF-539 > 100 µM | SK-MEL-5 > 100 µM | SF-268 > 100 µM | M14 > 100 µM | MDA-MB-435 > 100 µM | KM12 > 100 µM | Malme-3M > 100 µM | IGROV-1 > 100 µM | MCF7 > 100 µM | UACC-62 > 100 µM | SK-MEL-2 > 100 µM | MDA-N > 100 µM | NCI/ADR-RES > 100 µM | U-251 > 100 µM | HL-60 > 100 µM

N=C(N)Nc1ccc(CC(N)C(=O)O)cc1 (configuration not stated)
inactive: HOP-62 > 12.5 µM | ACHN > 12.5 µM | SK-MEL-5 > 12.5 µM | SNB-75 > 12.5 µM | SF-268 > 12.5 µM | M14 > 12.5 µM | MDA-MB-435 > 12.5 µM | KM12 > 12.5 µM | Malme-3M > 12.5 µM | IGROV-1 > 12.5 µM | MCF7 > 12.5 µM | UACC-62 > 12.5 µM | SK-MEL-2 > 12.5 µM | MDA-N > 12.5 µM | NCI/ADR-RES > 12.5 µM | U-251 > 12.5 µM | HL-60 > 12.5 µM

Cc1cn(C2CC(N=[N+]=[N-])C(CO)O2)c(=O)n(CCCCO)c1=O (configuration not stated)
inactive: HOP-62 > 100 µM | ACHN > 100 µM | SF-539 > 100 µM | SNB-75 88.3 µM | SF-268 > 100 µM | M14 > 100 µM | MDA-MB-435 > 100 µM | KM12 > 100 µM | Malme-3M > 100 µM | IGROV-1 > 100 µM | MCF7 > 100 µM | UACC-62 > 100 µM | SK-MEL-2 > 100 µM | MDA-N > 100 µM | NCI/ADR-RES > 100 µM | U-251 > 100 µM | HL-60 > 100 µM
